These results are taken from patent US10059655B2, “Lipids and lipid compositions for the delivery of active agents” (priority 2013, dated 2018).

One series concerns hLeptin. The series can be described thus: Human leptin in mouse plasma (ELISA) after IV tail vein injection of encapsulated leptin mRNA. The class given is in vivo. Particulars: 0.4 mpk, C57 mice, @ 24 h. On the procedure:
Human leptin in mouse plasma was measured by ELISA. Antibodies purchased from the R&D Systems duoset (Cat# DY398E, part#840279 for capture antibody and part#840280 for detection antibody) were reconstituted using PBS and titered, again using PBS. The capture antibody was coated at 4 ug/ml in 30 ul/well on a white Nunc® Maxisorp 384 well plate (Cat#460372). After an overnight incubation at room temperature the capture antibody was aspirated and the plate blocked for 2 hours at room temperature with 90 ul/well of KPL milk blocker (Cat#50-82-00). Once the incubation was completed the plate was aspirated and recombinant standards and samples were added to the plate at 30 ul/well for 2 hours at 37° C. while shaking at 600 rpm. Sample/standard dilutions were made using casein sample diluent. Washing/aspiration 3 times with 100 ul/well followed, using Teknova plate wash solution (Cat# P1192). […] The plate was quickly read using a SpectramaxM5 plate reader with a 50 ms integration time. […]
Before the tail vein injection, mouse body weights were recorded and diet weighted, with mice grouped according to their body weights. […]
On day 0, animals were weighed and sorted according to average body weight. Mice were dosed, and food intake (FI) was recorded, on each of days 1-7 and days 9, 11, and 16.

Series [1] concerns plasma Factor VII enzyme activity. The series can be described thus: Factor VII Activity Assay after IV dosing of formulated Factor VII siRNA in mice. The class given is in vivo, mouse. As to conditions: 0.03 mpk, CD-1 mice, about 48 hours after injection. On the procedure: Female CD-1 mice were received from Harlan Labs and maintained on standard lab chow and water ad libitum. The animals weighed approximately 25 gr at time of dosing. Formulated Factor VII siRNA was administered as a single dose intravenously via the lateral tail vein. Approximately 48 hours after injection, the mice were euthanized by CO2 inhalation followed by exsanguination through the vena cava.
Plasma collected from injected mice was assayed for Factor VII enzyme activity using the Biophen FVII kit from Hyphen Biomedical (catalog number 221304). An assay standard curve was prepared using pooled plasma aliquots from the vehicle control animals. All samples were diluted to fall within the linear range of the standard curve and Factor VII activity relative to control plasma was reported.
Lipid nanoparticles comprising lipid compounds of formula (I) and the FVII siRNA duplex sequence listed above were tested in the Factor VII Activity Assay. The results of this assay are given in Table 3 4 below as a percent knock down of plasma Factor VII enzyme activity at a dose of 0.3 mg/kg and 0.03 mg/kg.

For another series, the system named is hFIX. The series can be described thus: Human Factor IX ELISA after IV injection of encapsulated hFIX mRNA. The series is classed as in vivo. As to conditions: 0.12 mpk, C57 mice, @ 24 h. Here is the method: An sheep anti-human Factor IX antibody (Cat# FIX-EIA-C) from Enzyme Research Laboratories is coated on 384-well white microtiter plates overnight at a concentration of 5 ug/ml, then blocked for assay using KPL blocker (Cat#50-82-00). Then, plasma samples are diluted in a casein-based sample diluent and incubated on the plate with biological controls and a standard curve created from recombinant protein (Cat#HCIX-0040). The plate is then washed to remove unbound material. A biotinylated sheep anti-human Factor IX antibody (Cat# FIX-EIA-D) from Enzyme Research Laboratories is then added to the plate at 0.6 ug/ml to detect human Factor IX protein bound by the capture antibody. The plate is washed again and a streptavidin-conjugated horseradish peroxidase reagent (Cat#21140) diluted 1:1250, is incubated on the plate. A third wash step is performed and chemiluminescent reagents (Cat#1859678 & Cat#18596789) are combined and added to the plate and immediately read by a capable plate reader using all wavelengths and a 50 millisecond integration time. Unknown samples are interpolated off the human recombinant Factor IX standard curve.
Background: In an ELISA, binding on a coated surface is turned into a signal by an enzyme label.

Series [2] can be described thus: Particle size of the lipid nanoparticle (Z-average, dynamic light scattering, Malvern Zetasizer). Particulars: for Size 1st IM / Size 2nd IM: RSV-F replicon RNA LNP, DLS; for Size 1st IM: 1st immunization; for Size 2nd IM: 2nd immunization. The class given is physicochemical. From the text:
The lipid nanoparticles have a size of about 1 to about 2,500 nm, about 10 to about 1,500 nm, about 20 to about 1,000 nm, in a sub-embodiment about 50 to about 600 nm, in a sub-embodiment about 50 to about 400 nm, in a sub-embodiment about 50 to about 250 nm, and in a sub-embodiment about 50 to about 150 nm. Unless indicated otherwise, all sizes referred to herein are the average sizes (diameters) of the fully formed nanoparticle, as measured by dynamic light scattering on a Malvern Zetasizer. The nanoparticle sample is diluted in phosphate buffered saline (PBS) so that the count rate is approximately 200-400 kcts. The data is presented as a weighted average of the intensity measure.
Unless indicated otherwise, all particle size measurements referred to in Table 3 are the Z-average particle size of the fully formed nanoparticle, as measured by dynamic light scattering on a Malvern Zetasizer. The nanoparticle sample was diluted in phosphate buffered saline (PBS) so that the count rate is approximately 200-400 kcts.
% entrapment (% E), Concentration of RNA (Conc), particle size measured by DLS, and polydispersity reported by DLS of LNPs prepared with different cationic lipids

A further series relates to RSV F protein. The experiment in a line: RSV immunogenicity: F-specific IgG titers after IM vaccination with liposome-formulated self-replicating RNA. The class given is in vivo. As to conditions: IM days 0 and 21, BALB/c mice, two weeks after two immunizations.

The structures appear in SMILES notation.

For `CCCCC/C=C\C/C=C\CCCCCCCC(=O)OCC(COC(=O)CCCCCCC/C=C\C/C=C\CCCCC)COC(=O)C1(C)CCN(C)C1` (stereo not shown) [Example 1, (9Z,9′Z,12Z,12′Z)-2-(((1,3-dimethylpyrrolidine-3-carbonyl)oxy)methyl)propane-1,3-diyl bis(octadeca-9,12-dienoate)], the “Expression of protein following IV injection of encapsulated mRNA: hLeptin” value in the series with hLeptin was found to be 12.3 ng/mL. Besides, the “FVII knock-down (%) following IV injection of encapsulated siRNA” value in series [1] was determined as 69%/0.03 mpk. Further, the “Expression of protein following IV injection of encapsulated mRNA: hFIX” value with hFIX worked out at 147.7 ng/mL. Moreover, the Size is on record as 119.0 nm in series [2] (FLuc mRNA); 102.3 nm in series [2] (FVII siRNA); 95.7 nm in series [2] (Gluc mRNA); 126.9 nm in series [2] (hFIX mRNA); 105.1 nm in series [2] (hLep plasmid); 100.0 nm in series [2] (hLeptin mRNA). For the same compound, the figures for the Size in series [2] (mEPO mRNA) and in series [2] (pDNA) were 107.2 nm and 100.7 nm, respectively. Further, the “Size 1st IM” value in series [2] is recorded as 139.1 nm. The “Size 2nd IM” value in series [2] came out at 133.5 nm. Also, the “Immunogenicity (2wp2; log10 IgG titers)” value in the series on RSV F protein (0.1 ng replicon RNA) is given as 3.99 log10 IgG titers; in the series with RSV F protein (1 ng replicon RNA), 4.08 log10 IgG titers.

On to `CCCCC/C=C\C/C=C\CCCCCCCC(=O)OCC(COC(=O)CCC(OCCCCCCCC)OCCCCCCCC)COC(=O)OCCCN(CC)CC` (stereo not shown) [Example 13, (9Z,12Z)-3-((4,4-bis(octyloxy)butanoyl)oxy)-2-((((3-(diethylamino)propoxy)carbonyl)oxy)methyl)propyl octadeca-9,12-dienoate], for which the “Expression of protein following IV injection of encapsulated mRNA: hLeptin” value in the series with hLeptin is 3.8 ng/mL. Moreover, in series [1], the “FVII knock-down (%) following IV injection of encapsulated siRNA” value turned out to be 97%/0.03 mpk. In addition, the “Expression of protein following IV injection of encapsulated mRNA: hFIX” value with hFIX worked out at 292.7 ng/mL. Besides, the Size amounted to 121.9 nm in series [2] (FLuc mRNA); 101.5 nm in series [2] (FVII siRNA); 90.8 nm in series [2] (Gluc mRNA); 122.4 nm in series [2] (hFIX mRNA); 121.5 nm in series [2] (hLep plasmid); 127.6 nm in series [2] (hLeptin mRNA). Moreover, the Size in series [2] (mEPO mRNA) stood at 113.7 nm; in series [2] (pDNA), 95.12 nm.

`CCCCC/C=C\C/C=C\CCCCCCCC(=O)OCC(COC(=O)CCC(OCCCCCCCC)OCCCCCCCC)COC(=O)OCC1CCCN(CC)C1` (stereo not shown) [Example 15, (9Z,12Z)-3-((4,4-bis(octyloxy)butanoyl)oxy)-2-(((((1-ethylpiperidin-3-yl)methoxy)carbonyl)oxy)methyl)propyl octadeca-9,12-dienoate]: the Size was 100.7 nm in series [2] (FLuc mRNA); 84.7 nm in series [2] (Gluc mRNA); 96.8 nm in series [2] (hFIX mRNA); 94.5 nm in series [2] (hLep plasmid); 119.8 nm in series [2] (hLeptin mRNA); 90.1 nm in series [2] (mEPO mRNA). The compound further returned a Size in series [2] (pDNA) of 86.9 nm. Moreover, the “Size 1st IM” value in series [2] was determined as 144.7 nm. The “Size 2nd IM” value in series [2] is listed as 139.4 nm. In addition, the “Immunogenicity (2wp2; log10 IgG titers)” value in the series with RSV F protein (0.1 ng replicon RNA) amounted to 4.45 log10 IgG titers; in the series on RSV F protein (1 ng replicon RNA), 4.63 log10 IgG titers.
